Consider 27 compounds from patent publication US7279575B2, “Pyrimidylpyrrole derivatives active as kinase inhibitors” (Pfizer Italia S.r.l., priority 2003, dated 2007).

One experiment addresses Cdc7/Dbf4 (Homo sapiens, UniProt O00311). The experiment is described as follows: Inhibition assay of Cdc7/Dbf4 activity (Dowex resin capture, 33P-ATP, MCM2 substrate). The class given is biochemical. Conditions: MCM2 6 μM, ATP 2 μM, Cdc7/Dbf4 2 nM, 60 minutes at room temperature. Here is the method: The inhibiting activity of putative Cdc7 inhibitors and the potency of selected compounds is determined through a method of assay based on the use of Dowex resin capture technology. The assay consists of the transfer of radioactivity labeled phosphate moiety by the kinase to an acceptor substrate. The resulting 33P-labeled product is separated from unreacted tracer, transferred into a scintillation cocktail and light emitted is measured in a scintillation counter.
Inhibition Assay of Cdc7/Dbf4 Activity
The inhibition assay of Cdc7/Dbf4 activity is performed according to the following protocol. The MCM2 substrate is trans-phosphorylated by the Cdc7/Dbf4 complex in the presence of ATP traced with γ^33-ATP. The reaction is stopped by addition of Dowex resin in the presence of formic acid. Dowex resin particles capture unreacted γ^33-ATP and drag it to the bottom of the well while ^33p phosphorylated MCM2 substrate remains in solution. The supernatant is collected, transferred into Optiplate plates and the extent of substrate phosphorylation is evaluated by β counting.
The inhibition assay of Cdc7/Dbf4 activity was performed in 96 wells plate according to the following protocol.
To each well of the plate were added: • 10 μl test compound (10 increasing concentrations in the nM to μM range to generate a dose-response curve). The solvent for test compounds contained 3% DMSO. (final concentration 1%) • 10 μl substrate MCM2 (6 μM final concentration), a mixture of cold ATP (2 μM final concentration) and radioactive ATP (1/5000 molar ratio with cold ATP). • 10 μl enzyme (Cdc7/Dbf4, 2 nM final concentration) that started the reaction. The buffer of the reaction consisted in 50 mM HEPES pH 7.9 containing 15 mM MgCl2, 2 mM DTT, 3 μM NaVO3, 2 mM glycerophosphate and 0.2 mg/ml BSA.
After incubation for 60 minutes at room temperature, the reaction was stopped by adding to each well 150 μl of Dowex resin in the presence of 150 mM formic acid. After another 60 min incubation, 50 μL of suspension were withdrawn and transferred into 96-well OPTIPLATEs containing 150 μl of MicroScint 40 (Packard); after 5-10 minutes shaking the plates were read for 1 min in a Packard TOP-Count radioactivity reader.
IC50 determination: inhibitors were tested at different concentrations ranging from 0.0005 to 10 μM. Experimental data were analyzed by the computer program Assay Explorer using the four parameter logistic equation: y=bottom+(top−bottom)/(1+10^((log|C50−x)*slope)) where x is the logarithm of the inhibitor concentration, y is the response; y starts at bottom and goes to top with a sigmoid shape.

The target of the next experiment is cdk2/Cyclin A (Homo sapiens, UniProt P24941). The experiment is described as follows: Inhibition assay of cdk2/Cyclin A activity (SPA, biotinylated histone H1). The conditions noted are these: histone H1 4 μM, ATP 10 μM, Cyclin A/CDK2 1.1 nM, 60 min at room temperature. The class given is biochemical. Here is the method:
The inhibiting activity of putative cdk/cyclin inhibitors and the potency of selected compounds may be determined through a method of assay based on the use of the SPA technology (Amersham Pharmacia Biotech).
The assay consists of the transfer of radioactivity labelled phosphate moiety by the kinase to a biotinylated substrate. The resulting 33P-labelled biotinylated product is allowed to bind to streptavidin-coated SPA beads (biotin capacity 130 pmol/mg), and light emitted was measured in a scintillation counter.
Inhibition Assay of cdk2/Cyclin A Activity
Kinase reaction: 4 μM in house biotinylated histone H1 (Sigma # H-5505) substrate, 10 μM ATP (0.1 microCi P^33γ-ATP), 1.1 nM Cyclin A/CDK2 complex, inhibitor in a final volume of 30 μl buffer (TRIS HCl 10 mM pH 7.5, MgCl2 10 mM, DTT 7.5 mM+0.2 mg/ml BSA) were added to each well of a 96 U bottom. After incubation for 60 min at room temperature, the reaction was stopped by addition of 100 μl PBS buffer containing 32 mM EDTA, 500 μM cold ATP, 0.1% Triton X100 and 10 mg/ml streptavidin coated SPA beads. After 20 min incubation, 110 μL of suspension were withdrawn and transferred into 96-well OPTIPLATEs containing 100 μl of 5M CsCl. After 4 hours, the plates were read for 2 min in a Packard TOP-Count radioactivity reader.
IC50 determination: inhibitors were tested at different concentrations ranging from 0.0015 to 10 μM. Experimental data were analyzed by the computer program GraphPad Prizm using the four parameter logistic equation: y=bottom+(top−bottom)/(1+10^((loglC50−x)*slope)) where x is the logarithm of the inhibitor concentration, y is the response; y starts at bottom and goes to top with a sigmoid shape.

The structures appear in SMILES notation. Where “and” joins values, the source holds several entries; their conditions need not be identical. Identical values can stand only once. Counter-ions that a name gives are not always drawn.

Chain of Cdc7/Dbf4 (O00311 whole entry, species assumed): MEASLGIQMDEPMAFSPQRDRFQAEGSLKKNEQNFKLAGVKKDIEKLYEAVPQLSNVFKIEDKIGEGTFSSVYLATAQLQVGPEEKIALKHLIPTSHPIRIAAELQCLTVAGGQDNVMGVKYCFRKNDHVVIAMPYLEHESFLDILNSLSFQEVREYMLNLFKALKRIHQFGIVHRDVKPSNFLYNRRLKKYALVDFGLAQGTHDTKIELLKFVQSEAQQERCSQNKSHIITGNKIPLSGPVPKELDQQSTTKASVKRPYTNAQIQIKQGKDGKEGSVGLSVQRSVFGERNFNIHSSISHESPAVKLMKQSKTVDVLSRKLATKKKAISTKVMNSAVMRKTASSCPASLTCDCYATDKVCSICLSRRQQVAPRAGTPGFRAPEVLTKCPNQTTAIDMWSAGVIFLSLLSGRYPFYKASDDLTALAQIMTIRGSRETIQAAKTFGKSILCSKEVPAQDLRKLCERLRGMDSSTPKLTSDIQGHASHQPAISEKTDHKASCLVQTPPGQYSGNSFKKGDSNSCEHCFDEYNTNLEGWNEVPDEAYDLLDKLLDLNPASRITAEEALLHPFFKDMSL
Chain of Cdc7/Dbf4 (Q9UBU7 whole entry partner, species assumed): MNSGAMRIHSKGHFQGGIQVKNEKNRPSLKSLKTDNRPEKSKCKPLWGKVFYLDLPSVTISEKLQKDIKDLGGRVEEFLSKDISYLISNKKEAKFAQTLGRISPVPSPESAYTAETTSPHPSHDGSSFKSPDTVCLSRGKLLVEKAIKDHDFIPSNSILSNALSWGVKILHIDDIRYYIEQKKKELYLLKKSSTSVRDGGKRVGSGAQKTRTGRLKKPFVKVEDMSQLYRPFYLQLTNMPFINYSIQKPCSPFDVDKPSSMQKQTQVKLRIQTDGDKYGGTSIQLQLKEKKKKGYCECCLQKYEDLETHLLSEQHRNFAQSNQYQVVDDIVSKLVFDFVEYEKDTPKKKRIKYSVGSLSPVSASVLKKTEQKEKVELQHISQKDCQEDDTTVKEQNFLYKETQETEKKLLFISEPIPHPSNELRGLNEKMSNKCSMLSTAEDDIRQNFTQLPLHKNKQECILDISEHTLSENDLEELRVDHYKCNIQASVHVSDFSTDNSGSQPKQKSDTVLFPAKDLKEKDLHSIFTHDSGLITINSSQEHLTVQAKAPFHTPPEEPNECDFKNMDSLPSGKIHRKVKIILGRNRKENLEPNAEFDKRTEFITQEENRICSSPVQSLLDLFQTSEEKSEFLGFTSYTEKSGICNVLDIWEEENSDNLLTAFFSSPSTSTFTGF

In general, IC50 refers to the point on the concentration scale where inhibition reaches its midpoint. The compound `CC1CNC(=O)c2cc(-c3ccnc(N)n3)[nH]c21` (racemic) [2-(2-aminopyrimidin-4-yl)-7-methyl-1,5,6,7-tetrahydro-4H-pyrrolo[3,2-c]pyridin-4-one] showed an IC50 at Cdc7/Dbf4 of 8 nM.

Regarding `CC1CNC(=O)c2cc(-c3ccnc(N)n3)[nH]c21` (single isomer, unassigned) [(7R or 7S)-2-(2-aminopyrimidin-4-yl)-7-methyl-1,5,6,7-tetrahydro-4H-pyrrolo[3,2-c]pyridin-4-on], the IC50 against Cdc7/Dbf4 worked out at 4 nM.

As to `CC1CNC(=O)c2cc(-c3ccnc(N)n3)[nH]c21` (single isomer, unassigned) [(7R or 7S)-2-(2-aminopyrimidin-4-yl)-7-methyl-1,5,6,7-tetrahydro-4H-pyrrolo[3,2-c]pyridin-4-one], at Cdc7/Dbf4, the IC50 was determined as 5 nM.

`Nc1nccc(-c2cc3c([nH]2)CCNC3=O)n1` [2-(2-aminopyrimidin-4-yl)-1,5,6,7-tetrahydro-4H-pyrrolo[3,2-c]pyridin-4-one hydrochloride]: the midpoint of inhibition on Cdc7/Dbf4, the IC50, lay at 11 nM. Compared with the last compound, the IC50 is about 2.2-fold higher.

`Nc1nccc(-c2[nH]c3c(c2I)C(=O)NCC3)n1` [2-(2-aminopyrimidin-4-yl)-3-iodo-1,5,6,7-tetrahydro-4H-pyrrolo[3,2-c]pyridin-4-one] returned an IC50 against Cdc7/Dbf4 of 4 nM. Against the preceding compound, the IC50 is about 2.8-fold lower.

At Cdc7/Dbf4, `CC1(C)Cc2[nH]c(-c3ccnc(N)n3)cc2C(=O)N1` [2-(2-aminopyrimidin-4-yl)-6,6-dimethyl-1,5,6,7-tetrahydro-4H-pyrrolo[3,2-c]pyridin-4-one hydrochloride] yielded an IC50 of 32 nM.

On Cdc7/Dbf4, `CC(C)CC1Cc2[nH]c(-c3ccnc(N)n3)cc2C(=O)N1` (stereo not shown) [2-(2-aminopyrimidin-4-yl)-6-isobutyl-1,5,6,7-tetrahydro-4H-pyrrolo[3,2-c]pyridin-4-one] yielded an IC50 of 4 nM. This IC50 is about 8-fold lower than that of the compound before.

In the case of `CC(C)C1Cc2[nH]c(-c3ccnc(N)n3)cc2C(=O)N1` (stereo not shown) [2-(2-aminopyrimidin-4-yl)-6-isopropyl-1,5,6,7-tetrahydro-4H-pyrrolo[3,2-c]pyridin-4-one], 9 nM corresponded to half-maximal inhibition against Cdc7/Dbf4 (IC50).

For `CC1Cc2[nH]c(-c3ccnc(N)n3)cc2C(=O)N1` (stereo not shown) [2-(2-aminopyrimidin-4-yl)-6-methyl-1,5,6,7-tetrahydro-4H-pyrrolo[3,2-c]pyridin-4-one], at Cdc7/Dbf4, inhibition was half-maximal at 26 nM (IC50). Compared with the last compound, the IC50 is about 2.9-fold higher.

`CCC1(CC)CNC(=O)c2cc(-c3ccnc(N)n3)[nH]c21` [2-(2-aminopyrimidin-4-yl)-7,7-diethyl-1,5,6,7-tetrahydro-4H-pyrrolo[3,2-c]pyridin-4-one] had an IC50 against Cdc7/Dbf4 of 7 nM.

The compound `CC1(C)CNC(=O)c2cc(-c3ccnc(N)n3)[nH]c21` [2-(2-aminopyrimidin-4-yl)-7,7-dimethyl-1,5,6,7-tetrahydro-4H-pyrrolo[3,2-c]pyridin-4-one] showed an IC50 against Cdc7/Dbf4 of 2 nM.

`CC(C)C1CNC(=O)c2cc(-c3ccnc(N)n3)[nH]c21` (stereo not shown) [2-(2-aminopyrimidin-4-yl)-7-isopropyl-1,5,6,7-tetrahydro-4H-pyrrolo[3,2-c]pyridin-4-one] gave a concentration for half-maximal inhibition (IC50) at Cdc7/Dbf4 of 8 nM.

As for `Nc1nccc(-c2cc3c([nH]2)C(c2ccccc2)CNC3=O)n1` (stereo not shown) [2-(2-aminopyrimidin-4-yl)-7-phenyl-1,5,6,7-tetrahydro-4H-pyrrolo[3,2-c]pyridin-4-one hydrochloride], at Cdc7/Dbf4, 15 nM corresponded to half-maximal inhibition (IC50).

`O=C1NCC(c2ccccc2)c2[nH]c(-c3ccnc(Nc4ccccc4)n3)cc21` (stereo not shown) [2-(2-anilinopyrimidin-4-yl)-7-phenyl-1,5,6,7-tetrahydro-4H-pyrrolo[3,2-c]pyridin-4-one hydrochloride] yielded an IC50 at Cdc7/Dbf4 of 29 nM.

On Cdc7/Dbf4, `O=C1NCCc2[nH]c(-c3ccnc(Nc4ccccc4)n3)cc21` [2-(2-phenylaminopyrimidin-4-yl)-1,5,6,7-tetrahydro-4H-pyrrolo[3,2-c]pyridin-4-one hydrochloride] registered an IC50 of 7 nM.

At Cdc7/Dbf4, `O=C1NCCc2[nH]c(-c3ncnc4[nH]cnc34)cc21` [2-(9H-purin-6-yl)-1,5,6,7-tetrahydro-4H-pyrrolo[3,2-c]pyridin-4-one hydrochloride] came in with an IC50 of 200 nM.

The compound `O=C1NCCc2[nH]c(-c3ccnc(NCc4ccccc4)n3)cc21` [2-[2-(benzylamino)pyrimidin-4-yl]-1,5,6,7-tetrahydro-4H-pyrrolo[3,2-c]pyridin-4-one] showed an IC50 at Cdc7/Dbf4 of 270 nM.

For `CC(C)CNc1nccc(-c2cc3c([nH]2)CCNC3=O)n1` [2-[2-(isobutylamino)pyrimidin-4-yl]-1,5,6,7-tetrahydro-4H-pyrrolo[3,2-c]pyridin-4-one], at cdk2/Cyclin A, the IC50 stood at 50 nM. This counts as double-digit nanomolar.

Regarding `CCCNc1nccc(-c2cc3c([nH]2)CCNC3=O)n1` [2-[2-(propylamino)pyrimidin-4-yl]-1,5,6,7-tetrahydro4H-pyrrolo[3,2-c]pyridin-4-one], the IC50 at cdk2/Cyclin A stood at 35 nM; at Cdc7/Dbf4, 310 nM.

As for `O=C1NCCc2[nH]c(-c3ccncn3)cc21` [2-pyrimidin-4-yl-1,5,6,7-tetrahydro-4H-pyrrolo[3,2-c]pyridin-4-one hydrochloride], the IC50 on Cdc7/Dbf4 is 19 nM.

As to `O=C1NCCc2[nH]c(-c3ccnc(NCc4ccco4)n3)cc21` [2-{2-[(2-furylmethyl)amino]pyrimidin-4-yl}-1,5,6,7-tetrahydro-4H-pyrrolo[3,2-c]pyridin-4-one], the IC50 was 80 nM against cdk2/Cyclin A; 74 nM and 87 nM against Cdc7/Dbf4.

As to `O=C1NCCc2[nH]c(-c3ccnc(NCC4CCCCC4)n3)cc21` [2-{2-[(cyclohexylmethyl)amino]pyrimidin-4-yl}-1,5,6,7-tetrahydro-4H-pyrrolo[3,2-c]pyridin-4-one], the IC50 amounted to 220 nM on cdk2/Cyclin A and 680 nM against Cdc7/Dbf4.

The compound `O=C1NCC(c2ccccc2)c2[nH]c(-c3ncnc4[nH]cnc34)cc21` (stereo not shown) [7-phenyl-2-(9H-purin-6-yl)-1,5,6,7-tetrahydro-4H-pyrrolo[3,2-c]pyridin-4-one hydrochloride] registered an IC50 against Cdc7/Dbf4 of 90 nM. That is a double-digit nanomolar value.

At Cdc7/Dbf4, `O=C1NCC(c2ccccc2)c2[nH]c(-c3ccncn3)cc21` (stereo not shown) [7-phenyl-2-pyrimidin-4-yl-1,5,6,7-tetrahydro-4H-pyrrolo[3,2-c]pyridin-4-one hydrochloride] gave an IC50 of 32 nM.

As to `O=C(Nc1nccc(-c2cc3c([nH]2)CCNC3=O)n1)c1ccccc1` [N-[4-(4-oxo-4,5,6,7-tetrahydro-1H-pyrrolo[3,2-c]pyridin-2-yl)pyrimidin-2-yl]benzamide], it took 300 nM to reach half-maximal inhibition against Cdc7/Dbf4 (IC50).

For the compound `CC(=O)Nc1ccc(CNc2nccc(-c3cc4c([nH]3)CCNC4=O)n2)cc1` [N-[4-({[4-(4-oxo-4,5,6,7-tetrahydro-1H-pyrrolo[3,2-c]pyridin-2-yl)pyrimidin-2-yl]amino}methyl)phenyl]acetamide trifluoroacetate], the IC50 against cdk2/Cyclin A worked out at 20 nM; against Cdc7/Dbf4, 300 nM.

In the case of `CCOC(=O)Nc1nccc(-c2cc3c([nH]2)CCNC3=O)n1` [ethyl 4-(4-oxo-4,5,6,7-tetrahydro-1H-pyrrolo[3,2-c]pyridin-2-yl)pyrimidin-2-ylcarbamate], half-maximal inhibition at Cdc7/Dbf4 (IC50) required 80 nM.
